This note sets out measurements from PMC3362645, “The Sigma Class Glutathione Transferase from the Liver Fluke Fasciola hepatica” (PLoS Neglected Tropical Diseases, 2012).

In the assay the target is T1, rFhGST-S1 (recombinant Fasciola hepatica Sigma class glutathione transferase) (Fasciola hepatica, UniProt Q06A71).
T1 sequence (Q06A71 1-211): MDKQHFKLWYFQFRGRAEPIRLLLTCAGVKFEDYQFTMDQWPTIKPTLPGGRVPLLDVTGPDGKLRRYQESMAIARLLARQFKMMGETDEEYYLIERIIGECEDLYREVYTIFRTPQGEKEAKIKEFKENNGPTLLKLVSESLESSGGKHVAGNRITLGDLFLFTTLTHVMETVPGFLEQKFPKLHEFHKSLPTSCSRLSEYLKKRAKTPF
In words: inhibition of GSH-CDNB conjugation, spectrophotometric, graphical IC50. The class given is biochemical.
For orientation: IC50 means the point on the concentration scale where inhibition reaches its midpoint. With `C[C@H](CCC(=O)O)[C@H]1CC[C@H]2[C@@H]3[C@H](O)C[C@@H]4C[C@H](O)CC[C@]4(C)[C@H]3CC[C@]12C` [Chenodeoxycholic acid], the IC50 was 64 ± 9 µM.
On to `C[C@H](CCC(=O)O)[C@H]1CC[C@H]2[C@@H]3[C@H](O)C[C@@H]4C[C@H](O)CC[C@]4(C)[C@H]3C[C@H](O)[C@]12C` [Cholic acid], for which the IC50 was determined as 302 ± 73 µM.
`C[S+]([O-])c1nc2cc(Cl)c(Oc3cccc(Cl)c3Cl)cc2[nH]1` (stereo not shown) [TCBZ SO, sulphoxide derivative of Triclabendazole]: the IC50 came out at 57 ± 5 µM.
For the compound `C[C@H](CCC(=O)O)[C@H]1CC[C@H]2[C@@H]3CC[C@@H]4C[C@H](O)CC[C@]4(C)[C@H]3C[C@H](O)[C@]12C` [Deoxycholic acid], the IC50 stood at 223 ± 21 µM.
